In US20250135006A1, “AMPHIPHILIC TLR7/8 ADJUVANTS AND USES THEREOF” (Pfizer Inc., priority 2023, published 2025):
Like-named read-outs stand apart in the source and are kept apart here.

Key:
[1] = Lymph node localization of AMP adjuvants in female BALB/c mice (LC-MS); format: in vivo; conditions: mouse, 2 nmol intramuscular; for concentration at 4 h: 4 h post injection; for concentration at 48 h: 48 h post injection
Description: Test compounds were prepared at a concentration of 40 uM in phosphate-buffered saline (pH 7.4)+0.1% polysorbate 80, and 50 uL (2 nmol) of each was administered by intramuscular injection into the right hind leg muscle (gastrocnemius) of female BALB/c mice. Lymph nodes (popliteal, inguinal) were collected from 5 mice per group at 4 h and 48 h post injection, snap frozen in liquid nitrogen, and stored at −80C until analysis. Blood was also collected via cardiac puncture at 4 h and 48 h post injection and centrifuged in EDTA-coated tubes to yield plasma which was stored at −80C until analysis. AMP adjuvant concentrations in each sample were quantified by liquid chromatography-mass spectrometry (LC-MS).
A standard curve containing the test compound was prepared in control mouse plasma before extraction with protein precipitation. Muscle samples were weighed and diluted in 4× 60:40 Isopropanol (IPA):Water. Lymph node samples were assumed to be 1 mg and were diluted 50× in […] 60:40 IPA:Water. Zirconium beads were added to tissue samples, followed by shaking in a bead beater to yield tissue homogenate. For plasma analysis, 20 ml of test sample or standard was added followed by 120 ml of acetonitrile containing internal standard (Simvastatin at 300 ng/ml). Tissue homogenate was prepared for analysis using a mixed matrix approach where test tissue samples (20 ml) were matrix matched with control plasma, and a plasma standard curve was matrixed matched with control mouse tissue. Internal standard was added as described above. Samples were vortexed for 1 min, then centrifuged at 3000 rpm for 5 min. 50 ml of supernatant was removed and transferred to a clean 96 well block, 150 ml of 0.1% formic acid in water was added, block was vortexed, centrifuged and 15 ml was injected on the LC/MS for analysis.
An initial mobile phase composition of 5% B was ramped to 95% in 2.0 minutes, held at 95% for 0.3 minutes, and then returned to initial 5% B for 0.3 minutes re-equilibration. The total analysis time for each sample was 3 minutes.
Data was collected on an AB Sciex API6500 (QTRAP) mass spectrometer using positive Turbo IonSpray™ electrospray ionization (ESI) and multiple reaction monitoring (MRM) mode. Typical source conditions, heated capillary temperature, gas1, gas2, and curtain gas were set at 600C, 50, 50, and 10 respectively. Transitions for Compound 1, Compound 2, and internal standard Simvastatin were m/z 1129® 923 for Compound 1, m/z 1172® 956 for Compound 2 and m/z 419® 285 for internal standard Simvastatin respectively. Data acquisition and processing was carried out with Analyst software version 1.7.

S. pneumoniae serotype 3 = format: in vivo, female Swiss-Webster mice; conditions: mouse
[2] = inguinal lymph node, read-out: concentration in the inguinal lymph node
[3] = plasma, read-out: concentration in plasma
[4] = popliteal lymph node, read-out: concentration in the popliteal lymph node

Structure (SMILES): CCCCc1nc2c(N)nc3cc(CCCN4CCN(C(=O)CCOCCOCCOCCOCCOCCOCCOCCOCCOCCOCCOCCOCCOCCOCCOCCOCCOCCOCCOCCOCCOCCOCCOCCOCCNC(=O)CCOCCOCCOCCOCCNC(=O)CCCOc5c(C)c(C)c6c(c5C)CC[C@@](C)(CCC[C@H](C)CCC[C@H](C)CCCC(C)C)O6)CC4)ccc3c2n1CC(C)(CO)CO [Compound 2, N-{75-[4-(3-{4-amino-2-butyl-1-[3-hydroxy-2-(hydroxymethyl)-2-methylpropyl]-1H-imidazo[4,5-c]quinolin-7-yl}propyl)piperazin-1-yl]-75-oxo-3,6,9,12,15,18,21,24,27,30,33,36,39,42,45,48,51,54,57,60,63,66,69,72-tetracosaoxapentaheptacont-1-yl}-17-oxo-20-({(2R)-2,5,7,8-tetramethyl-2-[(4R,8R)-4,8,12-trimethyltridecyl]-3,4-dihydro-2H-chromen-6-yl}oxy)-4,7,10,13-tetraoxa-16-azaicosan-1-amide]
- concentration at 4 h [1, 2]: 16600 ± 6920 ng/g
- concentration at 48 h [1, 2]: 17000 ± 3320 ng/g
- concentration at 4 h [1, 3]: 1100 ± 305 ng/mL
- concentration at 48 h [1, 3]: < 25 ng/mL
- concentration at 4 h [1, 4]: 35300 ± 16800 ng/g
- concentration at 48 h [1, 4]: 23200 ± 7820 ng/g
- OPA geometric mean titers (GMT) (S. pneumoniae serotype 3; 0.1 μg S. pneumoniae serotype 3-CRM197 antigen with adjuvant (2 nmol; AlPO4 100 μg), IM weeks 0 and 3, sera week 5): 610
- OPA geometric mean titers compared with reference adjuvants (S. pneumoniae serotype 3; S. pneumoniae serotype 3 antigen, versus aluminum phosphate and free TLR 7/8 agonist): higher average OPA geometric mean titers than aluminum phosphate, as well as the free TLR 7/8 agonist molecule
